The record followed here is publication PMC10853860 (2023).

The test system of test [1] is T. ilyis ldcC SAM-I variant riboswitch WT (TiltrxWT) (RNA, riboswitch) AAAAUAUCUCUUAUUAAUAGCCGUUGAGACGAGGGGUCGAAGAUACGGUGGCAAACCAAUCAAUCCAAUUUUUUUGCAGUACGGAUUGAUAUUGGGUGCCCAACCUGAGCGUAGGAUUAUCCAAGUCCUAUGAGCAAUAAGAGGAAAAGCAGCUGAUAGAUAUCGAAGCUUUCCUUUGGUUGGAGAGCUUUUUUUAUGCCCAUUUUUUAUAUCAAAGGGGGAAAUCUAU
As to the kind of experiment: single-round transcription termination. The note with it: 100 mM KCl, 2 mM MgCl2, 20 mM Tris-HCl pH 8.0, 37 °C; for binding: 1 mM tested, no termination increase; for T50: E. coli RNA polymerase, apparent.

In test [2] the test system is 135 metK RNA (RNA, riboswitch) GGUCUAUCUUAUUAAUAGCCGUUGAGACGAGGGGUCGAAGAAGCGGUGGCAAACCAGUCCAAAUCAAUGAUUUGGAUAUGGGGCCCAACCUGAGCGCAGAGCUUUUCUGUUCUGUGAACAAUAAGAGGAUAAGCAG
The test can be described thus: in-line probing. The following applies: 100 mM KCl, 2 mM MgCl2, 50 mM Tris-HCl pH 7.5, ~20 °C, apparent.

Test [3] concerns T. ilyis hypo consensus SAM-I riboswitch (TilconsSAMItrx) (RNA, riboswitch) AAAAUAACUUCUUUAUCACGAGAGAUUGAGGGACUGGCCCGAUGACAUCUCAGCAACCGACCCACGCGUAACGCGGCGGCACGGUGCUAAAUCCUGCAGAGUAAUCUGAGAGAUAAGAAGAGCAAAUCGACAUUCCCGACUCUUCUUGUUAUAAGAAGGGUUUUUUGUUUUCAAAAAAACAAUCUGGAGGGAAAAACG
As to the kind of experiment: single-round transcription termination. The note with it: 100 mM KCl, 2 mM MgCl2, 20 mM Tris-HCl pH 8.0, 37 °C.

For test [4], the system named is 135 metK M14 (RNA, riboswitch) GGUCUAUCUUAUUAAAAGCCGUUGAGACGAGGGGUCGAAGAAGCGGUGGCAUACCAGUCCAAAUCAAUGAUUUGGAUAUGGGGCCAAACCUGAGCGCAGAGCUUUUCUGUUCUGUGAACAAUAAGAGGAUAAGCAG
The test can be described thus: in-line probing. The following applies: 100 mM KCl, 2 mM MgCl2; 50 mM Tris-HCl pH 7.5, ~20 °C; 1 and 5.6 mM tested.

In test [5] the test system is T. ilyis ldcC M9 (TiltrxshortP1) (RNA, riboswitch) AAUUAAUAGCCGUUGAGACGAGGGGUCGAAGAUACGGUGGCAAACCAAUCAAUCCAAUUUUUUUGCAGUACGGAUUGAUAUUGGGUGCCCAACCUGAGCGUAGGAUUAUCCAAGUCCUAUGAGCAAUAAGAGGAAAAGCAGCUGAUAGAUAUCGAAGCUUUCCUUUGGUUGGAGAGCUUUUUUUAUGCCCAUUUUUUAUAUCAAAGGGGGAAAUCUAU
As to the kind of experiment: single-round transcription termination. The note with it: 100 mM KCl, 2 mM MgCl2; 20 mM Tris-HCl pH 8.0, 37 °C; no termination response.

Test [6] relates to (RNA, riboswitch) AAAAUAUCUCUUAUUAAUAGCCGUUGAGACGAGGGGUCGAAGAUACGGUGGCAAACCAAUCAAUCCAAUUUUUUUGCAGUACGGAUUGAUAUUGGGUGCCCAACCUGAGCGUAGGAUUAUCCAAGUCCUAUGAGCAAUAAGAGGAAAAGCAGCUGAUAGAUAUCGAAGCUUUCCUUUGGUUGGAGAGCUUUUUUUAUGCCCAUUUUUUAUAUCAAAGGGGGAAAUCUAU
As to the kind of experiment: single-round transcription termination. The note with it: 100 mM KCl, 2 mM MgCl2; 20 mM Tris-HCl pH 8.0, 37 °C; 1 mM tested; no termination increase.

On to `CC(=O)NCCCNCCCCN`, for which, in test [1], the binding result was “no”.

For the compound `CC(=O)NCCCNCCCCNCCCN`, in test [2] (Hill 1.5), the KD was ~ 860 μM.

As to `CCCNCCCN`, the binding result in test [1] is given as “no”.

Regarding `CCNCCCN`, the binding entry in test [1] is recorded as “no”.

Consider `CNCCCN`, for which the binding result in test [1] is “no”.

On to `CSC[C@H]1O[C@@H](n2cnc3c(N)ncnc32)[C@H](O)[C@@H]1O`, for which, in test [1], the binding entry is “no”.

For the compound `C[S+](CC[C@H](N)C(=O)O)C[C@H]1O[C@@H](n2cnc3c(N)ncnc32)[C@H](O)[C@@H]1O` (some centres unmarked), the binding result was “no” in test [1] and “yes” in test [3] (1 mM SAM, strong termination).

Consider `NCCCCNCCCN`, for which the KD in test [2] (Hill 1.4, replicate ~730 μM) was ~ 670 μM. Also, the binding entry in test [4] was “weak”; in test [5], “no”; in test [3] (1 mM tested, no termination response) it was “no”. Moreover, in test [1], the T50 was 214 µM.

For the compound `NCCCN`, the binding result in test [1] is on record as “no”.

On to `NCCCNCCCCNCCCN`, for which, in test [2] (Hill 1.4), the KD is on record as ~ 340 μM. Moreover, the T50 in test [1] is 79 µM.

On to `NCCCSC[C@H]1O[C@@H](n2cnc3c(N)ncnc32)[C@H](O)[C@@H]1O`, for which, in test [6], the binding result is given as “no”.
